One assay deals with mice. Description: Dark Avoidance Assay (SDDA), reversal of scopolamine induced memory deficit. It is filed as in vivo. Conditions: s.c., retest after 24 hours. The protocol: This utility can also be ascertained by determining the ability of these compounds to restore cholinergically deficient memory in the Dark Avoidance Assay. In this assay mice are tested for their ability to remember an unpleasant stimulus for a period of 24 hours. A mouse is placed in a chamber that contains a dark compartment; a strong incandescent light drives it to the dark compartment, where an electric shock is administered through metal plates on the floor. The animal is removed from the testing apparatus and tested again, 24 hours later, for the ability to remember the electric shock.
If scopolamine, an anticholinergic that is known to cause memory impairment, is administered before an animal's initial exposure to the test chamber, the animal re-enters the dark compartment shortly after being placed in the test chamber 24 hours later. This effect of scopolamine is blocked by an active test compounds, resulting in a greater interval before re-entry into the dark compartment.
The test results are expressed as the percent of a group of animals in which the effect of scopolamine is blocked, as manifested by an increased interval between being placed in the test chamber and reentering the dark compartment. Results of Dark Avoidance Assay for some of the compounds of this invention are presented in Table II along with a result for a reference compounds.

A further assay addresses acetylcholinesterase (Homo sapiens, UniProt P22303). Description: Acetylcholinesterase Inhibition Assay (photometric method of Ellman et al.). It is filed as biochemical. (In general: Ellman's reagent forms a yellow product with free thiols.)

The values below come from US6316439A, “Galanthamine derivatives as acetylcholinesterase inhibitors” (priority 1993, dated 2001).

Counter-ions that a name gives are not always drawn. Like-named read-outs stand apart in the source and are kept apart here.

acetylcholinesterase, sequence (P22303 32-614): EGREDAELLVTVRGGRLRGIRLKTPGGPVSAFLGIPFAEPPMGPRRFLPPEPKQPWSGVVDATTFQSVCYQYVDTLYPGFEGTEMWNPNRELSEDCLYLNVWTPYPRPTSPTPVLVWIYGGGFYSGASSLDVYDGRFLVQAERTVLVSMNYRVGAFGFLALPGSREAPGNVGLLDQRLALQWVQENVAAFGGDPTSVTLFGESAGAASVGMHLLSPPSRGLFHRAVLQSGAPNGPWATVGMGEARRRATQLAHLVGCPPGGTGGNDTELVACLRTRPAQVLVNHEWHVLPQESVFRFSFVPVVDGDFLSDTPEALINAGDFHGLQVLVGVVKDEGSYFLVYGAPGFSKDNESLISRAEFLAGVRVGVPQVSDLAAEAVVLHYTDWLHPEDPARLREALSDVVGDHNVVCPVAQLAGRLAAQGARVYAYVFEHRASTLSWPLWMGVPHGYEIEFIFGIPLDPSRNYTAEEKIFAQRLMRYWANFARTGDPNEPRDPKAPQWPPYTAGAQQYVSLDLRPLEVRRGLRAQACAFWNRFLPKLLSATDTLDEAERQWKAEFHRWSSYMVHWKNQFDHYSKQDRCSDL

Consider `CC(C)OC(=O)OC1C=CC23CCN(C)Cc4ccc(OC(=O)C(C)(C)C)c(c42)OC3C1.Cl.O` (stereo not drawn) [6-O-Demethyl-3-O-(2-propoxy-carbonyl)-6-O-(t-butylcarbonyl)-galanthamine hydrochloride hydrate], for which the “Percent of Animals with Scopolamine Induced Memory Deficit Reversal” value (shortened to “Percent of Animals”) in the assay on mice (0.10 mg/kg) is 53% of Animals.

For orientation: IC50 means the concentration needed to halve the response being measured. The molecule `CC(C)OC(=O)Oc1ccc2c3c1O[C@H]1C[C@@H](O)C=C[C@@]31CCN(C)C2` [6-O-Demethyl-6-O-(2-propoxycarbonyl)galanthamine] returned an IC50 against acetylcholinesterase of 1610 nM.

As to `CN1CC[C@@]23C=C[C@H](O)C[C@@H]2Oc2c(OC(=O)C(C)(C)C)ccc(c23)C1` [6-O-Demethyl-6-O-(trimethylacetyl)-galanthamine], the “Percent of Animals” value with mice (0.10 mg/kg) was 53% of Animals.

Consider `CN1CC[C@@]23C=C[C@H](O)C[C@@H]2Oc2c(OC(=O)C(C)(C)C)ccc(c23)C1` [Example 3, 6-O-Demethyl-6-O-(t-butylcarbonyl)galanthamine hydrochloride], for which the IC50 at acetylcholinesterase (photometric method of Ellman et al., read-out: IC50 CHE I) came out at 2690 nM.

On to `CC(C)OC(=O)Oc1ccc2c3c1O[C@H]1C[C@@H](O)C=C[C@@]31CCN(C)C2` [Example 9, 6-O-Demethyl-6-O-(prop-2-yl-oxycarbonyl)galanthamine hydrochloride], for which the “Percent of Animals” value with mice (0.10 mg/kg) is 33% of Animals.

For `Nc1c2c(nc3ccccc13)CCCC2` [Tacrine, reference compound], the “Percent of Animals” value in the assay on mice (0.31 mg/kg) is 33% of Animals.
